In US6492329B1, “Cytokine and hemopoietic factor endogenous production enhancer and methods of use thereof” (Novelos Therapeutics, Inc., priority 1995, dated 2002):
Several values for one entry are separate records, joined by “and”; a condition that tells them apart may be missing. Equal values may be shown once.

Legend:
[1] = test system: CBA mice with cyclophosphamide-induced hemo- and immunodepression; experiment: Cyclophosphamide-induced hemo- and immunodepression in mice; assay type: in vivo, mouse; details: 5 mg/kg IP daily for 5 days
Description: The study was designed to evaluate the effect of a 5-day long administration of the test articles on the capability of the CP-treated murine splenocytes to produce IL-2 and GM-CSF in vitro. In addition, the number of blood leukocytes and lymphocytes and the bone marrow cellularity (number of karyocytes) were determined at 8 days after CP administration. Some animals receiving CP were then challenged with sheep red blood cells (SRBC), and the humoral immune response to the antigen was evaluated.
Male CBA mice (18 to 20 g body weight) were given a single intraperitoneal injection of CP in a dose of 50 mg/kg. […] Group description is represented below.
Injections were performed during 5 days: once a day, daily.
Twenty four hours after the completion of 5 day treatment course (on the 8th day after the CP injection), mice were euthanized and splenocyte cultures were aseptically prepared for assessment of spontaneous production of IL-2 and GM-CSF by the spleen lymphocytes in vitro.
Simultaneously, blood and marrow samples were collected for blood leukocyte and lymphocyte, and marrow nucleated cell counted,
Serum samples from immunized animals were tested on level of SRBC agglutinins (the day 8 after the CP injection, and the day 7 after the immunization).

[2] = test system: CBA mice with radiation-induced hemo- and immunodepression; experiment: Radiation-induced hemo- and immunodepression in mice; assay type: in vivo, mouse; details: mice irradiated 1 Gy, 5 mg/kg IP daily for 7 days, day 8 post-exposure
Description: The study was designed to evaluate efficacy of 7-day daily administration of the test articles (with the dosing started 2 hours post-exposure) on the capability of the splenocytes from mice exposed to radiation to produce IL-2 and GM-CSF in vitro. In addition, the number of blood leukocytes and lymphocytes and the spleen and bone marrow cellularity (number of karyocytes), as well as splenic and medullary colony-stimulating capacity, were determined at 8 days post-exposure.
Male CBA mice (18 to 20 g body weight) were irradiated with single dose of 180 kV X-rays filtered with 0.5 mm Cu (at 15 mA, distance—70 cm, duration 2 min. and 28 sec.).
The total absorbed dose comprised approximately 1 Gy. Five groups of animals (with no less than 12 mice in each) were formed. Group description is represented below.
Injections were performed during 7 days: once a day, daily.
Twenty four hours after the completion of 7 day treatment course (on the 8th day after the irradiation). mice were euthanized and splenocyte cultures were aseptically prepared for assessment of spontaneous production of IL-2 and GM-CSF by the spleen lymphocytes in vitro.
Simultaneously, blood, spleen and marrow samples were collected for blood leukocyte and lymphocyte, and spleen and marrow nucleated cell counting.
Additionally, hemopoietic colony formation ability of spleen and bone marrow cells was, assessed by the method of direct count of colony forming units (CFU) in the spleens of irradiated CBA mice receiving intravenously spleen or bone marrow cells obtained from animals of control or test groups.

[3] = cyclophosphamide-treated mice, day 8 after CP

N[C@@H](CCC(=O)N[C@@H](CS)C(=O)NCC(=O)O)C(=O)O [GSH, γ-glutamyl-cysteinyl-glycine]
SRBC agglutinin titer ([1]; cyclophosphamide-treated mice immunized with SRBC, day 7 after immunization): 1.94 log2 and 1.62 log2 and 2.09 log2
Blood leukocyte count [1, 3]: 5.2 ± 10^9/L and 6.3 ± 10^9/L and 6.2 ± 10^9/L
Blood lymphocyte count [1, 3]: 4.3 ± 10^9/L and 4.6 ± 10^9/L and 5.31 ± 10^9/L
Bone marrow nucleated cell number [1, 3]: 32.2 ± 10^6/L and 36.4 ± 10^6/L
IL-2 production by splenocytes [1, 3]: 17.2 U/mL and 15.3 U/mL and 20.3 U/mL
Blood leukocyte count [2]: 4.8 ± 10^9/L and 5.7 ± 10^9/L and 4.95 ± 10^9/L
Blood lymphocyte count [2]: 3.4 ± 10^9/L and 4.6 ± 10^9/L and 4.0 ± 10^9/L
Bone marrow CFU [2]: 22.1 and 25.6 and 25.3
Bone marrow nucleated cell number [2]: 17.2 ± 10^6/L and 24.7 ± 10^6/L and 22.5 ± 10^6/L
IL-2 production by splenocytes [2]: 8.6 U/mL and 9.3 U/mL and 9.9 U/mL
Spleen CFU [2]: 56.3 and 66.3 and 59.8
Spleen nucleated cell number [2]: 4.3 ± 10^7/L and 6.93 ± 10^7/L and 5.5 ± 10^7/L
